According to patent US4303664A, “Novel penicillin derivatives containing a coumarin nucleus and medicines containing the same” (Teijin Limited, priority 1978, dated 1981):
Converted amounts (≈) assume the structure as drawn. Read-outs that look alike come from different tables or passages of the source.

Tests used:
Assay type in all cases: cell-based
[1] = tested on: Staphylococcus aureus 209-p; assay: Bactericidal test (MIC), Staphylococcus aureus 209-p; conditions: (1) Staphylococcus aureus 209-p
From the text: (§1) Results of bactericidal tests (MIC, r/ml) on the penicillin derivatives of this invention prepared in the above examples are shown in the following table.

[2] = tested on: Staphylococcus aureus 1248; assay: Bactericidal test (MIC), Staphylococcus aureus 1248
From the text: as §1

[3] = tested on: Bacillus subtilis; assay: Bactericidal test (MIC), Bacillus subtilis; conditions: (3) Bacillus subtilis
From the text: as §1

[4] = tested on: Salmonella typhimurium G-20; assay: Bactericidal test (MIC), Salmonella typhimurium G-20; conditions: Salmonella enterica; (4) Salmonella typhimurium G-20
From the text: as §1

[5] = tested on: Escherichia Coli NIHJ JC-2; assay: Bactericidal test (MIC), Escherichia Coli NIHJ JC-2; conditions: NIHJJC2; (5) Escherichia Coli NIHJ JC-2
From the text: as §1

[6] = tested on: Klebsiella neumoniae ATCC10031; assay: Bactericidal test (MIC), Klebsiella neumoniae ATCC10031
From the text: as §1

[7] = tested on: Enterobactor cloacae 147; assay: Bactericidal test (MIC), Enterobactor cloacae 147; conditions: (7) Enterobactor cloacae 147
From the text: as §1

[8] = tested on: Morganella var. G-2; assay: Bactericidal test (MIC), Morganella var. G-2; conditions: VAR.G2
From the text: as §1

[9] = tested on: Rettgerella var. Tid-21; assay: Bactericidal test (MIC), Rettgerella var. Tid-21
From the text: as §1

[10] = tested on: Serratia G-18; assay: Bactericidal test (MIC), Serratia G-18; conditions: G18
From the text: as §1

[11] = tested on: Pseudomonas aeruginosa IFO-3080; assay: Bactericidal test (MIC), Pseudomonas aeruginosa IFO-3080; conditions: IFO3080
From the text: as §1

[12] = tested on: Pseudomonas aeruginosa 0-37; assay: Bactericidal test (MIC), Pseudomonas aeruginosa 0-37; conditions: 037; (13) Pseudomonas aeruginosa 0-37
From the text: as §1

[13] = tested on: Pseudomonas aeruginosa Tid-53; assay: Bactericidal test (MIC), Pseudomonas aeruginosa Tid-53; conditions: TID53; (14) Pseudomonas aeruginosa Tid-53
From the text: as §1

[14] = tested on: Pseudomonas aeruginosa GN-315; assay: Bactericidal test (MIC), Pseudomonas aeruginosa GN-315; conditions: GN315; (15) Pseudomonas aeruginosa GN-315
From the text: as §1

[15] = tested on: Pseudomonas aeruginosa 130; assay: Bactericidal test (MIC), Pseudomonas aeruginosa 130; conditions: (16) Pseudomonas aeruginosa 130
From the text: as §1

[16] = tested on: Enterobacter cloacae IF012937; assay: Bactericidal test (MIC), Enterobacter cloacae IF012937; conditions: (8) Enterobacter cloacae IF012937
From the text: as §1

[17] = (2) Staphylococcus aureus 1248, read-out: MIC
[18] = (11) Serratia G-18, read-out: MIC
[19] = (12) Pseudomonas aeruginosa IFO-3080, read-out: MIC
[20] = (6) Klebsiella neumoniae ATCC10031, read-out: MIC
[21] = (9) Morganella var. G-2, read-out: MIC
[22] = (10) Rettgerella var. Tid-21, read-out: MIC

Compound	MIC [1] [µg/mL]	MIC [2, 17] [µg/mL]	MIC [3] [µg/mL]	MIC [4] [µg/mL]	MIC [5] [µg/mL]	MIC [7] [µg/mL]	MIC [10, 18] [µg/mL]	MIC [11, 19] [µg/mL]	MIC [12] [µg/mL]	MIC [13] [µg/mL]	MIC [14] [µg/mL]	MIC [15] [µg/mL]	MIC [6, 20] [µg/mL]	MIC [8, 21] [µg/mL]	MIC [9, 22] [µg/mL]	MIC [16] [µg/mL]	further results
CC1(C)S[C@@H]2[C@H](NC(=O)[C@H](N)c3ccccc3)C(=O)N2[C@H]1C(=O)O [Ampicillin, ampicillin, reference compound]	< 0.8	< 0.8	< 0.8	< 0.8	< 0.8	400 (≈ 1140 µM)	25 (≈ 71.5 µM)	200 (≈ 572 µM)	> 400	> 400	> 400	> 400					MIC ([6]; Klebsiella, ATCC10031): 12.5 µg/mL (≈ 35.8 µM); MIC ([8]; Morganella): 12.5 µg/mL (≈ 35.8 µM); MIC [9]: 6.25 µg/mL (≈ 17.9 µM)
CC1(C)S[C@@H]2[C@H](NC(=O)C(C(=O)O)c3ccccc3)C(=O)N2[C@H]1C(=O)O (stereo partly drawn) [Carbenicillin, carbenicillin, reference compound]	< 0.8		< 0.8	< 0.8	< 0.8	200 (≈ 529 µM)			> 400	200 (≈ 529 µM)	100 (≈ 264 µM)	25 (≈ 66.1 µM)	50 (≈ 132 µM)	1.56 (≈ 4.12 µM)	25 (≈ 66.1 µM)		MIC ([2]; Staphylococcus aureus, 1248): 3.13 µg/mL (≈ 8.27 µM); MIC ([10]; Serratia): 6.25 µg/mL (≈ 16.5 µM); MIC ([11]; Pseudomonas aeruginosa): 12.5 µg/mL (≈ 33 µM)
CC1(C)S[C@@H]2[C@H](NC(=O)[C@H](NC(=O)c3cc4cc(Br)cc(Br)c4oc3=O)c3ccccc3)C(=O)N2[C@H]1C(=O)O [Example 4, D(-)-α-(6,8-Dibromocoumarin-3-carbonamido)benzylpenicillin]	1.56 (≈ 2.3 µM)	50 (≈ 73.6 µM)	1.56 (≈ 2.3 µM)	3.13 (≈ 4.61 µM)	< 0.4	50 (≈ 73.6 µM)	100 (≈ 147 µM)	50 (≈ 73.6 µM)	200 (≈ 294 µM)	200 (≈ 294 µM)	200 (≈ 294 µM)	50 (≈ 73.6 µM)	3.13 (≈ 4.61 µM)	25 (≈ 36.8 µM)	100 (≈ 147 µM)	200 (≈ 294 µM)	
Cc1ccc2oc(=O)c(C(=O)N[C@@H](C(=O)N[C@@H]3C(=O)N4[C@@H]3SC(C)(C)[C@@H]4C(=O)O)c3ccccc3)c(C)c2c1 [Example 5, D(-)-α-(4,6-Dimethylcoumarin-3-carbonamido)benzylpenicillin]	< 0.4	1.56 (≈ 2.84 µM)	< 0.4	< 0.4	< 0.4	100 (≈ 182 µM)	50 (≈ 91 µM)	12.5 (≈ 22.7 µM)	200 (≈ 364 µM)	50 (≈ 91 µM)	50 (≈ 91 µM)	12.5 (≈ 22.7 µM)	0.8 (≈ 1.46 µM)	25 (≈ 45.5 µM)	25 (≈ 45.5 µM)	50 (≈ 91 µM)	
COc1ccc2oc(=O)c(C(=O)N[C@@H](C(=O)N[C@@H]3C(=O)N4[C@@H]3SC(C)(C)[C@@H]4C(=O)O)c3ccccc3)cc2c1 [Example 7, D(-)-α-(6-Methoxycoumarin-3-carbonamido)benzylpenicillin]	< 0.4	1.56 (≈ 2.83 µM)	< 0.4	< 0.4	< 0.4	3.13 (≈ 5.67 µM)	12.5 (≈ 22.7 µM)	1.56 (≈ 2.83 µM)	25 (≈ 45.3 µM)	3.13 (≈ 5.67 µM)	3.13 (≈ 5.67 µM)	1.56 (≈ 2.83 µM)	< 0.4	6.25 (≈ 11.3 µM)	6.25 (≈ 11.3 µM)	3.13 (≈ 5.67 µM)	
COc1ccc2cc(C(=O)N[C@@H](C(=O)N[C@@H]3C(=O)N4[C@@H]3SC(C)(C)[C@@H]4C(=O)O)c3ccccc3)c(=O)oc2c1 [Example 8, D(-)-α-(7-Methoxycoumarin-3-carbonamido)benzylpenicillin]	< 0.4	< 0.4	< 0.4	< 0.4	< 0.4	1.56 (≈ 2.83 µM)	12.5 (≈ 22.7 µM)	1.56 (≈ 2.83 µM)	25 (≈ 45.3 µM)	3.13 (≈ 5.67 µM)	3.13 (≈ 5.67 µM)	3.13 (≈ 5.67 µM)	< 0.4	3.13 (≈ 5.67 µM)	6.25 (≈ 11.3 µM)	6.25 (≈ 11.3 µM)	
CC1(C)S[C@@H]2[C@H](NC(=O)[C@H](NC(=O)c3cc4cc(O)ccc4oc3=O)c3ccccc3)C(=O)N2[C@H]1C(=O)O [Example 10, D(-)-α-(6-Hydroxycoumarin-3-carbonamido)benzylpenicillin]	< 0.4	1.56 (≈ 2.9 µM)	< 0.4	< 0.4	< 0.4	3.13 (≈ 5.82 µM)	12.5 (≈ 23.3 µM)	1.56 (≈ 2.9 µM)	25 (≈ 46.5 µM)	6.25 (≈ 11.6 µM)	3.13 (≈ 5.82 µM)	3.13 (≈ 5.82 µM)	0.8 (≈ 1.49 µM)	6.25 (≈ 11.6 µM)	6.25 (≈ 11.6 µM)	100 (≈ 186 µM)	
CC1(C)S[C@@H]2[C@H](NC(=O)[C@H](NC(=O)c3cc4ccc(O)cc4oc3=O)c3ccccc3)C(=O)N2[C@H]1C(=O)O [Example 11, D(-)-α-(7-Hydroxycoumarin-3-carbonamido)benzylpenicillin]	< 0.4	6.25 (≈ 11.6 µM)	< 0.4	< 0.4	< 0.4	12.5 (≈ 23.3 µM)	200 (≈ 372 µM)	3.13 (≈ 5.82 µM)	100 (≈ 186 µM)	25 (≈ 46.5 µM)	12.5 (≈ 23.3 µM)	6.25 (≈ 11.6 µM)	12.5 (≈ 23.3 µM)	50 (≈ 93 µM)	25 (≈ 46.5 µM)	12.5 (≈ 23.3 µM)	
CC(=O)Oc1ccc2cc(C(=O)N[C@@H](C(=O)N[C@@H]3C(=O)N4[C@@H]3SC(C)(C)[C@@H]4C(=O)O)c3ccccc3)c(=O)oc2c1 [Example 12, D(-)-α-(7-Acetoxycoumarin-3-carbonamido)benzylpenicillin]	< 0.4	3.13 (≈ 5.4 µM)	< 0.4	< 0.4	< 0.4	12.5 (≈ 21.6 µM)	100 (≈ 173 µM)	1.56 (≈ 2.69 µM)	50 (≈ 86.3 µM)	6.25 (≈ 10.8 µM)	6.25 (≈ 10.8 µM)	1.56 (≈ 2.69 µM)	12.5 (≈ 21.6 µM)	25 (≈ 43.1 µM)	12.5 (≈ 21.6 µM)	100 (≈ 173 µM)	
CC(=O)Oc1cccc2cc(C(=O)N[C@@H](C(=O)N[C@@H]3C(=O)N4[C@@H]3SC(C)(C)[C@@H]4C(=O)O)c3ccccc3)c(=O)oc12 [Example 21, D-α-(8-Acetoxycoumarin-3-carbonamido)benzylpenicillin]	< 0.4	3.13 (≈ 5.4 µM)			< 0.4		12.5 (≈ 21.6 µM)	< 0.4	50 (≈ 86.3 µM)	12.5 (≈ 21.6 µM)	3.13 (≈ 5.4 µM)	0.8 (≈ 1.38 µM)	0.8 (≈ 1.38 µM)	1.56 (≈ 2.69 µM)	1.56 (≈ 2.69 µM)	6.25 (≈ 10.8 µM)	
COc1cc(OC)c2cc(C(=O)N[C@@H](C(=O)N[C@@H]3C(=O)N4[C@@H]3SC(C)(C)[C@@H]4C(=O)O)c3ccccc3)c(=O)oc2c1 [Example 22, D-α-(5,7-Dimethoxycoumarin-3-carbonamido)benzylpenicillin]	< 0.4	3.13 (≈ 5.38 µM)			< 0.4	12.5 (≈ 21.5 µM)	100 (≈ 172 µM)	1.56 (≈ 2.68 µM)	50 (≈ 86 µM)	6.25 (≈ 10.7 µM)	6.25 (≈ 10.7 µM)	3.13 (≈ 5.38 µM)	1.56 (≈ 2.68 µM)	50 (≈ 86 µM)	25 (≈ 43 µM)	50 (≈ 86 µM)	
CCOc1ccc2oc(=O)c(C(=O)N[C@@H](C(=O)N[C@@H]3C(=O)N4[C@@H]3SC(C)(C)[C@@H]4C(=O)O)c3ccccc3)cc2c1 [Example 23, D-α-(6-Ethoxycoumarin-3-carbonamido)benzylpenicillin]	< 0.4				< 0.4	1.56 (≈ 2.76 µM)	25 (≈ 44.2 µM)	0.8 (≈ 1.41 µM)	12.5 (≈ 22.1 µM)	3.13 (≈ 5.53 µM)	3.13 (≈ 5.53 µM)	1.56 (≈ 2.76 µM)	6.25 (≈ 11.1 µM)	3.13 (≈ 5.53 µM)	3.13 (≈ 5.53 µM)	6.25 (≈ 11.1 µM)	
COc1cccc2oc(=O)c(C(=O)N[C@@H](C(=O)N[C@@H]3C(=O)N4[C@@H]3SC(C)(C)[C@@H]4C(=O)O)c3ccccc3)cc12 [Example 24, D-α-(5-Methoxycoumarin-3-carbonamido)benzylpenicillin]	< 0.4				< 0.4	1.56 (≈ 2.83 µM)	25 (≈ 45.3 µM)	0.8 (≈ 1.45 µM)	12.5 (≈ 22.7 µM)	3.13 (≈ 5.67 µM)	3.13 (≈ 5.67 µM)	1.56 (≈ 2.83 µM)		3.13 (≈ 5.67 µM)	3.13 (≈ 5.67 µM)	6.25 (≈ 11.3 µM)	
CC1(C)S[C@@H]2[C@H](NC(=O)[C@H](NC(=O)c3cc4cccc(O)c4oc3=O)c3ccccc3)C(=O)N2[C@H]1C(=O)O [Example 26, D(-)-α-(8-Hydroxycoumarin-3-carbonamido)benzylpenicillin]	< 0.4		< 0.4		< 0.4	3.13 (≈ 5.82 µM)	12.5 (≈ 23.3 µM)	< 0.4	50 (≈ 93 µM)	6.25 (≈ 11.6 µM)	1.56 (≈ 2.9 µM)	1.56 (≈ 2.9 µM)		1.56 (≈ 2.9 µM)	1.56 (≈ 2.9 µM)	12.5 (≈ 23.3 µM)	
